Converted amounts (≈) assume the structure as drawn.
Legend:
[1] = Chemical conversion of carvacrol prodrugs to carvacrol in water and buffer solutions (HPLC); type: physicochemical; details: 37 °C, 1 mg/mL, mean (±SD) of three experiments
Method: We removed 400 μL samples at various time intervals and drug concentrations were analyzed by high performance liquid chromatography (HPLC) using an Agilent 1260 Infinity II HPLC (Agilent, Santa Clara, CA, USA) consisting of quaternary pump, autosampler, column oven, and UV-Vis diode-array detector. Samples were run in an Agilent Poroshell 120 EC-C18 column (4 μm, 4.60 × 150 mm; Agilent, Santa Clara, CA, USA) maintained at 25 °C. The mobile phase consisted of a mixture 50:50 v/v H2O MilliQ (Merck KGaA, Darmstadt, Germany) and CH3CN with 0.1% trifluoracetic acid (TFA) flushing at an isocratic flow rate of 1 mL/min. The detector was set at a wavelength of 270 nm. Data were processed using LC Open LAB HPLC 1260 software (Agilent, Santa Clara, CA, USA). Results are reported as relative difference (RD%) of prodrugs conversion, calculated with Equation (1):(1) RD%=Ci− Cf/Ci ×100 where Ci is the prodrug concentration at zero time point and Cf is the prodrug concentration at the end of incubation.

[2] = In vitro release studies of WSCP1-3 loaded-VHS in a dissolution tester; type: physicochemical; details: 37 °C, from prodrug-VHS nanohybrid
Method: Release studies were conducted in a dissolution tester (Sotax AT7, SOTAX Group, Aesch, Switzerland). […] During the test, temperature was maintained constant at 37 °C and agitation was achieved using a paddle system set to 100 rpm. At predetermined time intervals, 5 mL of dissolution medium was withdrawn, filtered with 0.45 μm Millipore^© membranes, and replaced with an equal volume of the corresponding fresh dissolution medium. […] Va is the volume picked up; and Ci is the concentration of drug at time i.

[3] = design: method as in PMID 16869897, PMID 31284397; details: cited from earlier work
[4] = cited from earlier work
[5] = acid pH (0.1 M HCl, pH 1.2), 120 min
[6] = pH 6.8 phosphate buffer, 240 min

Compound	pseudo-first-order dissociation rate constant Kobs ([1]; pH 6.8 buffer)	amount of prodrug released from VHS [2, 5]	amount of prodrug released from VHS [2, 6]	pseudo-first-order dissociation rate constant Kobs ([1]; pH 7.4 buffer)	octanol/water partition coefficient (logP o/w) [3]	water solubility [4]
Cc1ccc(C(C)C)cc1OC(=O)CN [WSCP1]	0.2982 (±0.0106) h^−1	38%	65%			
Cc1ccc(C(C)C)cc1OC(=O)[C@@H](C)N [WSCP2]	0.9027 (±0.0042) h^−1	54%	78%	0.7878 (±0.0629) h^−1		
Cc1ccc(C(C)C)cc1OC(=O)CCN [WSCP3]	0.0381 (±0.0002) h^−1	45%	44%	0.0420 (±0.0006) h^−1		
Cc1ccc(C(C)C)cc1O [carvacrol, 2-methyl-5-isopropylphenol]					3.64	110 µg/mL (≈ 732 µM)

Source: publication PMC7179022, “Carvacrol Prodrugs with Antimicrobial Activity Loaded on Clay Nanocomposites” (Materials, 2020)
